Results on 14 compounds are retold here after patent publication US11760761B2, “Methods and compositions for targeting PD-L1” (Aligos Therapeutics, Inc., priority 2020, dated 2023).

One test deals with PD-1/PD-L1 interaction (Homo sapiens (Human), UniProt Q9NZQ7). The test can be described thus: PD-1/PD-L1 NFAT Reporter Assay (Jurkat T cells / PD-L1 expressing CHO cells co-culture). Type of test: cell-based. The note with it: for Emax: Jurkat, maximum NFAT-activation level relative to the positive control (10 nM Atezolizumab); for EC50: co-culture 6 hrs at 37° C., luciferase. As to the method:
Blocking the PD-1/PD-L1 interaction will release the inhibitory signal and results in TCR signaling and NFAT-mediated luciferase activity.
CHO cells expressing surface-bound anti-CD3 antibodies and PD-L1 were first seeded overnight and treated with the compounds. Jurkat cells overexpressing PD-1 and a luciferase construct under NF-AT promoter were then immediately seeded on the monolayer of CHO cells. The co-culture was then incubated for 6 hrs at 37° C. Luciferase activity was assessed by adding the ONE-Glo reagent and measuring luminescence with a plate reader. EC50s values were determined from the fit of the dose-response curves Emax (%) corresponds to the maximum NFAT-activation level reached by a given compound relative to the positive control (10 nM Atezolizumab).
In general terms: In a reporter assay the amount or activity of a reporter protein is the signal.

A further test addresses PDL1/PD1 (Homo sapiens (Human), UniProt Q9NZQ7). The test can be described thus: PDL1/PD1 Binding Assay. The note with it: PDL1-6xHis 0.3 nM, PD1-Fc-Avi-Biotin 2.5 nM, Acceptor/Donor beads; read-out: PD-1/PD-L1 PPI IC50. As to the method:
Compounds to be tested were serially diluted in DMSO, and further diluted in assay buffer (25 mM Hepes pH 7.4, 150 mM NaCl, 0.005% Tween 20, BSA 0.01%). Diluted compounds were added to the wells with final concentration of DMSO at 1%. PDL1-6×His protein was added to the wells, mixed well with compound. The plates were incubated for 30 min at room temperature. PD1-Fc-Avi-Biotin protein was added to the wells. Final concentration of PDL1 and PD1 protein is 0.3 nM and 2.5 nM, respectively. After a binding time of 30 min at room temperature, Anti-6×His Acceptor beads (final concentration 20 ug/ml) were added to the wells, and the incubation continued for 1 h. Streptavidin Donor beads (final concentration 20 ug/mL) were added at reduced light. The plates were sealed with foil and incubated in the dark for additional 1 h or overnight before reading on an Envision reader. The IC50 values were determined by fitting the curves using a four-parameter equation in Graphpad Prism 8.

Another test concerns the target PDL1 (Homo sapiens (Human), UniProt Q9NZQ7). The test can be described thus: PDL1 Dimerization Assay. The format is biochemical. The note with it: 0.5 nM PDL1-6xHis, 0.5 nM PDL1-strep; read-out: PD-L1 dimerization EC50. As to the method: Serially diluted compounds were added to plate wells with the final concentration of DMASO at 1%. PDL1-6×His and PDL1-strep proteins were diluted in assay buffer (25 mM Hepes pH 7.4, 150 mM NaCl, 0.005% Tween 20, BSA 0.01%), added to the wells, and mixed well with the compounds. The plates were incubated for 2 h at room temperature. Anti-6×His Acceptor beads were added to the wells and the plates were further incubated for 1 h at room temperature. Strep-tactin Donor beads were added to the wells at reduced light. After additional 1 h incubation in the dark, the plates were read on a Envision reader. The final concentrations were 0.5 nM PDL1-6×His, 0.5 nM PDL1-strep, 20 ug/mL Anti-6×His Acceptor beads, 20 ug/mL Strep-tactin Donor beads. The EC50 values were determined by fitting the curves using a four-parameter equation in Graphpad Prism 8.

One may read the Emax as the greatest response seen or fitted, relative to the assay's reference. As a reminder, the EC50 is the concentration needed to bring the measured effect to its halfway point.

Molecules are shown by their SMILES. Bounds are passed on as bounds.

Sequence of PD-1/PD-L1 interaction (Q9NZQ7 19-290): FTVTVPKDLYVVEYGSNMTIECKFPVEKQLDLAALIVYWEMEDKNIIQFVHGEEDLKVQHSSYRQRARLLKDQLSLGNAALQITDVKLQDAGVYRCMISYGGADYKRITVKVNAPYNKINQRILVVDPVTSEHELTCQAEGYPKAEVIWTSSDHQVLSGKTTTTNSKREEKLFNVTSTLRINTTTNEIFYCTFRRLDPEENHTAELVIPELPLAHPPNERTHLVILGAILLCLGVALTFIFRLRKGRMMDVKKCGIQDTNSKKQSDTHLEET
Sequence of PDL1/PD1 (Q9NZQ7 19-238): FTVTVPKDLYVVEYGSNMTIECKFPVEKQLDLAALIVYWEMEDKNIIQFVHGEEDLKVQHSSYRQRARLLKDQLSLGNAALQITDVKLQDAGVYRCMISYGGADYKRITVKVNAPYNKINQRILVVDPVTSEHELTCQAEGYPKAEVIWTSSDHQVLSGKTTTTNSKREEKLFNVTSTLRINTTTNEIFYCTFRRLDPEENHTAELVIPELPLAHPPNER
Sequence of PDL1 (Q9NZQ7 19-238): as above
Sequence of PDL1 (Q9NZQ7 19-238): as above

In the case of `COc1cc(-c2cccc(-c3cccc(-c4cnc(CN5CC(O)C5)c(OC)n4)c3Cl)c2Cl)cc2c1[C@@H](N1CC(O)C1)CC2` (single isomer, unassigned) [Compound A-9], at PD-1/PD-L1 interaction, the Emax is 105% and the EC50 lay within 100 to 1000 nM. Further, at PDL1/PD1, the IC50 was at most 10 nM. At PDL1, the concentration for a half-maximal effect (EC50) is 1000 to 10000 nM.
Consider `COc1cc(-c2cccc(-c3cccc(-c4cnc(CN5CC6(CCC(=O)N6)C5)c(OC)n4)c3Cl)c2Cl)cc2c1[C@@H](NCC(=O)O)CC2` [Compound B-1], for which, on PD-1/PD-L1 interaction, the Emax turned out to be 89% and the EC50 lay in the range of 1000 to 10000 nM. For the same compound, at PDL1, the EC50 lay in the range of 1000 to 10000 nM.
`COc1cc(-c2cccc(-c3cccc(-c4cnc(CN5CC6(CCC(=O)N6)C5)c(OC)n4)c3Cl)c2Cl)cc2c1[C@H](N1CC3(CCC(=O)N3)C1)CC2` (single isomer, unassigned) [Compound A-8] showed an Emax on PD-1/PD-L1 interaction of 145%. In addition, the EC50 at PD-1/PD-L1 interaction lay in the range of 100 to 1000 nM; on PDL1, 1000 to 10000 nM. Moreover, the IC50 at PDL1/PD1 was at most 10 nM.
At PD-1/PD-L1 interaction, `COc1cc(-c2cccc(-c3cccc(-c4cnc(CN5CC6(CCC(=O)N6)C5)c(OC)n4)c3Cl)c2Cl)cc2c1[C@H](NCC(=O)O)CC2` (single isomer, unassigned) [Compound B-2] displayed an Emax of 107% and an EC50 of 100 to 1000 nM. Further, on PDL1, the EC50 lay within 1000 to 10000 nM.
With `COc1nc(-c2cccc(-c3cccc(-c4cc5c(c(OC)n4)C(NC[C@H]4CCC(=O)N4)CC5)c3Cl)c2Cl)cnc1CN1CC2(CCC(=O)N2)C1` (some centres unmarked) [Compound C-7], the EC50 at PD-1/PD-L1 interaction was 10 to 100 nM. Also, the IC50 at PDL1/PD1 is at most 10 nM.
Compound `CCOC(=O)CN[C@H]1CCc2cc(-c3cccc(-c4cccc(-c5cnc(CN6CC7(CCC(=O)N7)C6)c(OC)n5)c4Cl)c3Cl)cc(OC)c21` [Compound A-1] returned an Emax at PD-1/PD-L1 interaction of 33%. In addition, the IC50 at PDL1/PD1 is at most 10 nM.
In turn, `COc1nc(-c2cccc(-c3cccc(-c4cc5c(c(OC)n4)[C@@H](N4CC(C(=O)O)C4)CC5)c3Cl)c2Cl)cnc1CN1C[C@@H](O)[C@@H]1C` (single isomer, unassigned) [Compound H-5] yielded an EC50 at PD-1/PD-L1 interaction of 10 to 100 nM. Moreover, the IC50 at PDL1/PD1 is at most 10 nM.
Regarding `COc1nc(-c2cccc(-c3cccc(-c4cc5c(c(OC)n4)[C@@H](N4CC6(CN(C(C)=O)C6)C4)CC5)c3Cl)c2Cl)cnc1CN1CC2(C1)CN(C(C)=O)C2` (single isomer, unassigned) [Compound D-18], the EC50 on PD-1/PD-L1 interaction is above 10000 nM. For the same compound, the IC50 at PDL1/PD1 was at most 10 nM.
As for `COc1nc(-c2cccc(-c3cccc(-c4cc5c(c(OC)n4)[C@H](N4CC(C(=O)O)C4)CC5)c3Cl)c2Cl)cnc1CN1CC(OC)C1` (single isomer, unassigned) [Compound H-4], the EC50 on PD-1/PD-L1 interaction is 100 to 1000 nM. For the same compound, the IC50 on PDL1/PD1 is at most 10 nM.
Turning to `COc1nc(-c2cccc(-c3cccc(-c4cc5c(c(OC)n4)[C@@H](N4CC(C(=O)O)C4)CC5)c3Cl)c2Cl)cnc1CN1CC(OC)C1` (single isomer, unassigned) [Compound H-3], the EC50 at PD-1/PD-L1 interaction fell in the range of 10 to 100 nM. Also, the IC50 on PDL1/PD1 was at most 10 nM.
The like results for `COc1nc(-c2cccc(-c3cccc(-c4cc5c(c(OC)n4)[C@@H](NC[C@@H]4CCC(=O)N4)CC5)c3Cl)c2Cl)cnc1CN1CC(OC)C1` [Compound D-9] were, in that order, at most 10 nM and at most 10 nM.
The like results for `COc1nc(-c2cccc(-c3cccc(-c4cc5c(c(OC)n4)[C@@H](NC[C@@H]4CCC(=O)N4)CC5)c3Cl)c2Cl)cnc1CNC[C@@H]1CCC(=O)N1` [Compound D-2] were, in that order, at most 10 nM and at most 10 nM.
In the case of `CCOC(=O)C1CN([C@H]2CCc3cc(-c4cccc(-c5cccc(-c6cnc(CN7CC8(CCC(=O)N8)C7)c(OC)n6)c5Cl)c4Cl)cc(OC)c32)C1` (single isomer, unassigned) [Compound A-3], at PD-1/PD-L1 interaction, the Emax came to 84% and the EC50 was 100 to 1000 nM. Further, the IC50 on PDL1/PD1 is at most 10 nM.
Take `COc1nc(-c2cccc(-c3cccc(-c4cc5c(c(OC)n4)[C@@H](N4CC(O)C4)CC5)c3Cl)c2Cl)cnc1CN1CC2(CCC(=O)N2)C1` (single isomer, unassigned) [Compound C-5]: the EC50 at PD-1/PD-L1 interaction is at most 10 nM. Moreover, the IC50 at PDL1/PD1 was at most 10 nM.
